Data from ChEMBL document CHEMBL1201862, “PubChem BioAssay data set” (2004).
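1) Cells in 96-well plates. 2) Compound, 48 h, 5 concentrations. 3) Linear interpolation between surrounding doses. 4) Unreached endpoint = highest concentration. At the GI50, growth is halved.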 Calls of active or inactive are those of the source. Cut-off read from the data, not from the text of the source: active = GI50 up to about 1.1 µM and inactive = higher.

Key:
Assay in all cases: DTP human tumour cell line panel, 48 h
[1] = test system: OVCAR-4
[2] = test system: U-251
[3] = test system: HCC 2998
[4] = test system: OVCAR-3
[5] = test system: NCI-H226
[6] = test system: OVCAR-5
[7] = test system: RPMI-8226
[8] = test system: SNB-19
[9] = test system: SNB-75
[10] = test system: DU-145
[11] = test system: SF-295
[12] = test system: NCI/ADR-RES
[13] = test system: SK-MEL-2
[14] = test system: MDA-MB-435
[15] = test system: SK-MEL-5
[16] = test system: HOP-62
[17] = test system: Hs-578T
[18] = test system: SF-539
[19] = test system: IGROV-1
[20] = test system: K562

What does the source list for N#Cc1ccccc1-c1nc2c3c(c(N)ccc3n1)C(=O)c1ccccc1-2?
GI50 [1]: 71 µM (inactive); GI50 [2]: 34.6 µM (inactive); GI50 [3]: > 100 µM (inactive); GI50 [4]: 45.1 µM (inactive); GI50 [5]: 35.2 µM (inactive); GI50 [6]: 34.8 µM (inactive); GI50 [7]: 14.3 µM (inactive); GI50 [8]: 55.1 µM (inactive); GI50 [9]: 50.2 µM (inactive); GI50 [10]: 64.1 µM (inactive); GI50 [11]: 45.1 µM (inactive); GI50 [12]: > 100 µM (inactive); GI50 [13]: 47 µM (inactive); GI50 [14]: 76.2 µM (inactive); GI50 [15]: 32.1 µM (inactive); GI50 [16]: 18.1 µM (inactive); GI50 [17]: 33.2 µM (inactive); GI50 [18]: 37.3 µM (inactive); GI50 [19]: 8.38 µM (inactive); GI50 [20]: 43.5 µM (inactive)

What does the source list for Cc1cc(N)ccc1C=O?
GI50 [1]: > 100 µM (inactive); GI50 [2]: > 100 µM (inactive); GI50 [3]: > 100 µM (inactive); GI50 [4]: > 100 µM (inactive); GI50 [5]: > 100 µM (inactive); GI50 [6]: > 100 µM (inactive); GI50 [7]: > 100 µM (inactive); GI50 [8]: > 100 µM (inactive); GI50 [9]: > 100 µM (inactive); GI50 [10]: > 100 µM (inactive); GI50 [12]: > 100 µM (inactive); GI50 [13]: > 100 µM (inactive); GI50 [14]: > 100 µM (inactive); GI50 [15]: > 100 µM (inactive); GI50 [16]: > 100 µM (inactive); GI50 [17]: > 100 µM (inactive); GI50 [18]: > 100 µM (inactive); GI50 [19]: > 100 µM (inactive); GI50 [20]: > 100 µM (inactive)

How did the GI50 [1] turn out when CC1=C(CO)C2=C(C)C3(CC3)[C@@](C)(O)C(=O)C2=C1 [IROFULVEN] was run?
Its GI50 is 0.237 µM (active).

And the GI50 [2]?
The GI50 was 0.286 µM (active).

And the GI50 [3]?
Its GI50 is 0.153 µM (active).

What about the GI50 [4] of the same compound?
The GI50 was 0.26 µM (active).

What about the GI50 [5] of the same compound?
Its GI50 is 0.191 µM (active).

And the GI50 [6]?
Its GI50 is 0.174 µM (active).

What about the GI50 [7] of the same compound?
The GI50 was 34.1 µM (inactive).

And the GI50 [8]?
Its GI50 is 0.348 µM (active).

What about the GI50 [9] of the same compound?
The GI50 was 0.191 µM (active).

And the GI50 [10]?
The GI50 was 0.0929 µM (active).

And the GI50 [11]?
The GI50 was 0.302 µM (active).

What about the GI50 [12] of the same compound?
The GI50 was 0.241 µM (active).

And the GI50 [13]?
Its GI50 is 0.196 µM (active).

And the GI50 [14]?
The GI50 was 1.47 µM (inactive).

And the GI50 [15]?
The GI50 was 0.161 µM (active).

What about the GI50 [16] of the same compound?
Its GI50 is 0.161 µM (active).

And the GI50 [17]?
The GI50 was 0.29 µM (active).

What about the GI50 [18] of the same compound?
Its GI50 is 0.172 µM (active).

And the GI50 [19]?
The GI50 was 0.149 µM (active).

What about the GI50 [20] of the same compound?
The GI50 was 3.37 µM (inactive).

With O=C1NC(=O)C(Cc2ccccc2)(c2cccnc2)N1 (centres undefined) as the compound, how does the GI50 [1] read?
Its GI50 is > 100 µM (inactive).

And the GI50 [2]?
The GI50 was > 100 µM (inactive).

And the GI50 [3]?
The GI50 was > 100 µM (inactive).

And the GI50 [4]?
Its GI50 is > 100 µM (inactive).

What about the GI50 [5] of the same compound?
Its GI50 is > 100 µM (inactive).

What about the GI50 [6] of the same compound?
The GI50 was > 100 µM (inactive).

What about the GI50 [7] of the same compound?
The GI50 was > 100 µM (inactive).

And the GI50 [8]?
Its GI50 is > 100 µM (inactive).

And the GI50 [9]?
Its GI50 is > 100 µM (inactive).

What about the GI50 [10] of the same compound?
Its GI50 is > 100 µM (inactive).

And the GI50 [11]?
The GI50 was > 100 µM (inactive).

What about the GI50 [12] of the same compound?
The GI50 was > 100 µM (inactive).

And the GI50 [13]?
Its GI50 is > 100 µM (inactive).

And the GI50 [14]?
Its GI50 is > 100 µM (inactive).

And the GI50 [15]?
The GI50 was > 100 µM (inactive).

What about the GI50 [16] of the same compound?
Its GI50 is > 100 µM (inactive).

And the GI50 [17]?
Its GI50 is > 100 µM (inactive).

And the GI50 [18]?
Its GI50 is > 100 µM (inactive).

And the GI50 [19]?
Its GI50 is > 100 µM (inactive).

What about the GI50 [20] of the same compound?
The GI50 was > 100 µM (inactive).

How did the GI50 [1] turn out when COc1ccc(N2CCOCC2)cc1 was run?
The GI50 was > 100 µM (inactive).

What about the GI50 [2] of the same compound?
Its GI50 is > 100 µM (inactive).

And the GI50 [3]?
Its GI50 is > 100 µM (inactive).

And the GI50 [4]?
The GI50 was > 100 µM (inactive).

What about the GI50 [5] of the same compound?
The GI50 was > 100 µM (inactive).

What about the GI50 [6] of the same compound?
Its GI50 is > 100 µM (inactive).

And the GI50 [7]?
The GI50 was > 100 µM (inactive).

What about the GI50 [8] of the same compound?
Its GI50 is > 100 µM (inactive).

And the GI50 [9]?
The GI50 was > 100 µM (inactive).

And the GI50 [10]?
Its GI50 is > 100 µM (inactive).

What about the GI50 [11] of the same compound?
Its GI50 is > 100 µM (inactive).

What about the GI50 [12] of the same compound?
The GI50 was > 100 µM (inactive).

And the GI50 [13]?
Its GI50 is > 100 µM (inactive).

What about the GI50 [14] of the same compound?
Its GI50 is > 100 µM (inactive).

And the GI50 [15]?
Its GI50 is > 100 µM (inactive).

And the GI50 [16]?
Its GI50 is > 100 µM (inactive).

What about the GI50 [17] of the same compound?
The GI50 was > 100 µM (inactive).

And the GI50 [18]?
Its GI50 is > 100 µM (inactive).

What about the GI50 [19] of the same compound?
The GI50 was > 100 µM (inactive).

And the GI50 [20]?
Its GI50 is > 100 µM (inactive).

CC(C)(C)N1C(=O)c2ccccc2C1(O)C(F)(F)F (centres undefined) was tested. Which GI50 [1] did it give?
The GI50 was > 100 µM (inactive).

And the GI50 [2]?
Its GI50 is > 100 µM (inactive).

What about the GI50 [3] of the same compound?
Its GI50 is > 100 µM (inactive).

And the GI50 [4]?
The GI50 was > 100 µM (inactive).

And the GI50 [5]?
Its GI50 is > 100 µM (inactive).

And the GI50 [6]?
The GI50 was > 100 µM (inactive).

And the GI50 [7]?
The GI50 was 76.6 µM (inactive).

What about the GI50 [8] of the same compound?
The GI50 was > 100 µM (inactive).

And the GI50 [9]?
The GI50 was 24.4 µM (inactive).

What about the GI50 [10] of the same compound?
Its GI50 is > 100 µM (inactive).

What about the GI50 [11] of the same compound?
The GI50 was > 100 µM (inactive).

What about the GI50 [12] of the same compound?
The GI50 was > 100 µM (inactive).

And the GI50 [13]?
The GI50 was > 100 µM (inactive).

And the GI50 [14]?
The GI50 was > 100 µM (inactive).

And the GI50 [15]?
Its GI50 is > 100 µM (inactive).

What about the GI50 [16] of the same compound?
Its GI50 is > 100 µM (inactive).

What about the GI50 [17] of the same compound?
Its GI50 is 24 µM (inactive).

What about the GI50 [18] of the same compound?
The GI50 was > 100 µM (inactive).

What about the GI50 [19] of the same compound?
Its GI50 is 74 µM (inactive).

What about the GI50 [20] of the same compound?
Its GI50 is 20.5 µM (inactive).

Which results are given for CCN(Cc1cc(Cl)cc(C)c1O)Cc1c(O)ccc2ccccc12?
GI50 [1]: 17.1 µM (inactive); GI50 [2]: 17.1 µM (inactive); GI50 [3]: 16.8 µM (inactive); GI50 [4]: 15 µM (inactive); GI50 [5]: 19.1 µM (inactive); GI50 [6]: 17.6 µM (inactive); GI50 [7]: 17.4 µM (inactive); GI50 [8]: 18.5 µM (inactive); GI50 [9]: 11.7 µM (inactive); GI50 [10]: 20.2 µM (inactive); GI50 [11]: 16.9 µM (inactive); GI50 [12]: 14.8 µM (inactive); GI50 [13]: 16.4 µM (inactive); GI50 [14]: 15.8 µM (inactive); GI50 [15]: 14.9 µM (inactive); GI50 [16]: 12.5 µM (inactive); GI50 [17]: 15.9 µM (inactive); GI50 [18]: 13.3 µM (inactive); GI50 [19]: 15.3 µM (inactive); GI50 [20]: 19.1 µM (inactive)
